Key:
[1] = Inhibition of Saccharomyces cerevisiae alpha-glucosidase using p-nitrophenyl-alpha-D-glucopyranoside as substrate preincubated for 5 mins prior to substrate addition measured after 35 mins by spectrophotocolorimetric assay
[2] = Noncompetitive inhibition of Saccharomyces cerevisiae alpha-glucosidase using p-nitrophenyl-alpha-D-glucopyranoside as substrate by Lineweaver-Burk plot and Dixon plot analysis
[3] = Competitive inhibition of Saccharomyces cerevisiae alpha-glucosidase using p-nitrophenyl-alpha-D-glucopyranoside as substrate by Lineweaver-Burk plot and Dixon plot analysis
[4] = Mixed type inhibition of Saccharomyces cerevisiae alpha-glucosidase using p-nitrophenyl-alpha-D-glucopyranoside as substrate by Lineweaver-Burk plot and Dixon plot analysis

Structure (SMILES)	IC50 [1] [µM]	Ki [2] [µM]	Ki [3] [µM]	Ki [4] [µM]
CC1(C)C=Cc2c(ccc(C(=O)CO)c2O)O1	420	130		
C[C@H]1O[C@H](O[C@H]2[C@H](O)[C@@H](O)[C@@H](O[C@H]3[C@H](O)[C@@H](O)C(O)O[C@@H]3CO)O[C@@H]2CO)[C@H](O)[C@@H](O)[C@@H]1N[C@H]1C=C(CO)[C@@H](O)[C@H](O)[C@H]1O (stereo partly drawn) [ACARBOSE]	340		260	
C=C1C(=O)O[C@@H]2C[C@@H](C)/C=C\C(=O)[C@](C)(O)[C@H](OC(C)=O)[C@@H](OC(=O)/C(C)=C/C)[C@@H]12 [CALEIN C]	280			410
COc1cc(-c2oc3cc(O)cc(O)c3c(=O)c2O)ccc1O [ISORHAMNETIN]	160			1910

From ChEMBL document CHEMBL2046341, “α-glucosidase inhibitors from Brickellia cavanillesii” (J Nat Prod, 2012)
